Test results: US7425640B2, “Substituted 5-carboxyamide pyrazoles and [1,2,4]triazoles as antiviral agents” (priority 2004, dated 2008)

Target: HCV RNA-dependent RNA polymerase NS5B (Δ21) (Hepatitis C virus genotype 1b, UniProt P26663)
Assay: Assay for HCV RNA-dependent RNA polymerase activity (SPA, [3H]-GTP incorporation)
Type: biochemical
Details: read-out: Δ21 Activity (IC50 μM); 50 nM NS5B (Δ21), class symbols
Method: Inhibitory activity of the present compounds against HCV RNA-dependent RNA polymerase was assayed according to the methods disclosed in United States Patent Application US2004/038993, content of which is incorporated herein by reference; and those described in Ferrari, E.; Wright-Minogue, J.; Fang, J. W. S.; Baroudy, B. M.; Lau, J. Y. N.; Hong, Z. J. Virol. 1999, 73, 1649.
Briefly, 50 μl reactions containing 20 mM HEPES (pH 7.3), 7.5 mM DTT, 20 units/ml RNasIN, 0.5 μg/ml biotinylated oligoG12, 5 μg/ml polyC, 5 μM GTP, 20 μCi/ml [^3H]-GTP, 10 mM MgCl2, 60 mM NaCl, 100 μg/ml BSA, and 50 nM NS5B (Δ21) were incubated at room temperature for three hours in 96-well plates with or without test compounds. Assay was terminated by the addition of 50 μl 10 mg/ml streptavidin-coated SPA beads supplemented with 100 mM EDTA, and the incorporation of labeled GTP determined by a TopCount Scintillation Counter. IC50 values were calculated from single experiments using 11 serial 2-fold dilutions (0.05-50 μM), and data were considered reliable only when the IC50 value of a positive internal control was within standard deviation range.

Sequence of HCV RNA-dependent RNA polymerase NS5B (Δ21) (P26663 2420-2989, stated change not applied): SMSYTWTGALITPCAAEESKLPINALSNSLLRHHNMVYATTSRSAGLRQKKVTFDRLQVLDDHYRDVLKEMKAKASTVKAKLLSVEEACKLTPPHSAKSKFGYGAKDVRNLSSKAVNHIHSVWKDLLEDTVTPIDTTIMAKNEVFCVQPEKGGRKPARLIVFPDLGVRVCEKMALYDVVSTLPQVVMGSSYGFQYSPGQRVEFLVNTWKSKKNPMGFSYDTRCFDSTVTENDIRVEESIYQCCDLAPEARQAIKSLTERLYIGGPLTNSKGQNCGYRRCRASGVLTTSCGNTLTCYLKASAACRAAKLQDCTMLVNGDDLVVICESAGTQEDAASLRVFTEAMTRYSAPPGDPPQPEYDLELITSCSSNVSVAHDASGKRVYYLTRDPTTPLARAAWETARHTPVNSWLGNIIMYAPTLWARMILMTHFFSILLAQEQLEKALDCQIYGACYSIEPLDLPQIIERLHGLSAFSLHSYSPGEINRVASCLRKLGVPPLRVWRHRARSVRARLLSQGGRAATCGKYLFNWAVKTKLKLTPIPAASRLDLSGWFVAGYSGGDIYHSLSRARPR

| SMILES | IC50 [µM] |
| --- | --- |
| Cc1ccc(OCC(C)(C)C)c(NC(=O)c2cc(C(=O)O)nn2CC(=O)N[C@H]2CCCC[C@@H]2OCc2ccccc2)c1 [Compound 114] | 0.1 to 1 |
| CCOC(=O)c1cc(C(=O)N[C@H]2CCCC[C@@H]2OCc2ccccc2)n(CC(=O)Nc2cc(C)ccc2OCC2CCCC2)n1 [Compound 99] | 0.1 to 1 |
| O=C(Cn1nc(C(=O)O)nc1C(=O)N[C@H]1CCCC[C@@H]1OCc1ccccc1)N[C@H]1CCCC[C@@H]1OCc1ccccc1 [Compound 66] | 0.1 to 1 |
| CNC(=O)c1cc(C(=O)N[C@H]2CCCC[C@@H]2OCc2ccccc2)n(CC(=O)N[C@H]2CCCC[C@@H]2OCc2ccccc2)n1 [Compound 145] | 0.1 to 1 |
| CC(CNC(=O)c1cc(C(=O)N[C@H]2CCCC[C@@H]2OCc2ccccc2)n(CC(=O)N[C@H]2CCCC[C@@H]2OCc2ccccc2)n1)c1ccccc1 (some centres unmarked) [Compound 117] | 0.1 to 1 |
| O=C(Cn1nc(C(=O)Nc2nnn[nH]2)nc1C(=O)N[C@H]1CCCC[C@@H]1OCc1ccccc1)N[C@H]1CCCC[C@@H]1OCc1ccccc1 [Compound 115] | 0.1 to 1 |
| CCCONC(=O)c1cc(C(=O)N[C@H]2CCCC[C@@H]2OCc2ccccc2)n(CC(=O)N[C@H]2CCCC[C@@H]2OCc2ccccc2)n1 [Compound 164] | 0.1 to 1 |
| CN(C(=O)Cn1nc(C(=O)O)cc1C(=O)N[C@H]1CCCC[C@@H]1OCc1ccccc1)[C@H]1CCCC[C@@H]1OCc1ccccc1 [Compound 123] | 0.1 to 1 |
| CC(C)(C)OC(=O)c1cc(C(=O)N[C@H]2CCCC[C@@H]2OCc2ccccc2)n(CC(=O)N[C@H]2CCCC[C@@H]2OCc2ccccc2)n1 [Compound 65] | 0.1 to 1 |
| O=C(O)CNC(=O)c1cc(C(=O)N[C@H]2CCCC[C@@H]2OCc2ccccc2)n(CC(=O)N[C@H]2CCCC[C@@H]2OCc2ccccc2)n1 [Compound 153] | 0.1 to 1 |
| O=C(Cn1nc(C(=O)N2CCN(Cc3ccccc3)CC2)cc1C(=O)N[C@H]1CCCC[C@@H]1OCc1ccccc1)N[C@H]1CCCC[C@@H]1OCc1ccccc1 [Compound 156] | 0.1 to 1 |
| Cc1ccc(OCc2ccccc2)c(NC(=O)c2cc(C(N)=O)nn2CC(=O)N[C@H]2CCCC[C@@H]2OCc2ccccc2)c1 [Compound 98] | 0.1 to 1 |
| COC(CNC(=O)c1cc(C(=O)N[C@H]2CCCC[C@@H]2OCc2ccccc2)n(CC(=O)N[C@H]2CCCC[C@@H]2OCc2ccccc2)n1)OC [Compound 146] | 0.1 to 1 |
| O=C(Cn1nc(O)cc1C(=O)N[C@H]1CCCC[C@@H]1OCc1ccccc1)N[C@H]1CCCC[C@@H]1OCc1ccccc1 [Compound 69] | 0.1 to 1 |

Same assay, conditions: Δ21 Activity (IC50 μM), 50 nM NS5B (Δ21), class symbols

| SMILES | IC50 [µM] |
| --- | --- |
| Cc1ccc(OCC2CCCCC2)c(NC(=O)c2cc(C(=O)O)nn2CC(=O)N[C@H]2CCCC[C@@H]2OCc2ccccc2)c1 [Compound 5] | < 0.05 |
| CCOC(=O)c1cc(C(=O)N[C@H]2CCCC[C@@H]2OCc2ccccc2)n(CC(=O)NC2CCCC[C@@H]2NCc2ccccc2)n1 (some centres unmarked) [Compound 199] | > 1 |
| CN(C)S(=O)(=O)Nc1cc(C(=O)N[C@H]2CCCC[C@@H]2OCc2ccccc2)n(CC(=O)N[C@H]2CCCC[C@@H]2OCc2ccccc2)n1 [Compound 45] | 0.05 to 0.1 |
| O=C(Cn1nc(C(=O)NCCCn2ccnc2)cc1C(=O)N[C@H]1CCCC[C@@H]1OCc1ccccc1)N[C@H]1CCCC[C@@H]1OCc1ccccc1 [Compound 188] | > 1 |
| O=C(Cn1nc(C(=O)Nc2ccc(-c3ccccc3)cc2)cc1C(=O)N[C@H]1CCCC[C@@H]1OCc1ccccc1)NC1CCCC[C@@H]1OCc1ccccc1 (some centres unmarked) [Compound 203] | > 1 |
| O=C(Cn1nc(NS(=O)(=O)c2ccc(Br)c(C(=O)O)c2)cc1C(=O)N[C@H]1CCCC[C@@H]1OCc1ccccc1)N[C@H]1CCCC[C@@H]1OCc1ccccc1 [Compound 17] | < 0.05 |
| Cc1cc(Oc2ccccc2NC(=O)Cn2nc(C(=O)O)cc2C(=O)N[C@H]2CCCC[C@@H]2OCc2ccccc2)ccc1Cl [Compound 23] | 0.05 to 0.1 |

Same assay, conditions: Δ21 Activity (IC50 μM), 50 nM NS5B (Δ21), numeric values

| SMILES | IC50 [µM] |
| --- | --- |
| O=C(Cn1nc(NS(=O)(=O)c2ccc(O)c(C(=O)O)c2)cc1C(=O)N[C@H]1CCCC[C@@H]1OCc1ccccc1)N[C@H]1CCCC[C@@H]1OCc1ccccc1 | 0.074 |
| Cc1ccc(OCc2ccccc2)c(NC(=O)c2cc(-c3nnn[nH]3)nn2CC(=O)N[C@H]2CCCC[C@@H]2OCc2ccccc2)c1 [drawing 240] | 0.02 |
